Test results as given in patent US12723063B2, “GIPR-agonist compounds” (Eli Lilly and Company, priority 2019, dated 2026).
*1 amine or outer side, *2 acyl side, *3 side chain or, on linkers, in order; H or OH if unused. Where a SMILES comes first, the peptide text is derived from it. Side-chain parts run from the residue outwards. [ ]: non-standard residue; d: D form. The star is where a group is joined. C20 diacid = O=C(O)CCCCCCCCCCCCCCCCCCC(=O)*; C18 diacid = O=C(O)CCCCCCCCCCCCCCCCC(=O)*; γGlu = O=C(O)[C@H](CCC(=O)[*:2])N[*:1]; αMeF = C[C@](N)(Cc1ccccc1)C(=O)O; 4Pal = N[C@@H](Cc1ccncc1)C(=O)O; AEEA = NCCOCCOCC(=O)O; Aib = CC(C)(N)C(=O)O

Legend:
Assay in all cases: cAMP functional assay (HTRF) in HEK293 cells in presence of 0.1% casein
Type in all cases: cell-based
[1] = biological target: T1, human GLP-1 receptor (GLP-1R) (Homo sapiens, UniProt P43220); conditions: HEK293 cells expressing human GLP-1R, geometric mean, read-out: hGLP1R cAMP Rel EC50 nM (SEM, n)
T1 construct: expressed in transfected cells; host or cells: HEK293
T1 sequence (P43220 24-463): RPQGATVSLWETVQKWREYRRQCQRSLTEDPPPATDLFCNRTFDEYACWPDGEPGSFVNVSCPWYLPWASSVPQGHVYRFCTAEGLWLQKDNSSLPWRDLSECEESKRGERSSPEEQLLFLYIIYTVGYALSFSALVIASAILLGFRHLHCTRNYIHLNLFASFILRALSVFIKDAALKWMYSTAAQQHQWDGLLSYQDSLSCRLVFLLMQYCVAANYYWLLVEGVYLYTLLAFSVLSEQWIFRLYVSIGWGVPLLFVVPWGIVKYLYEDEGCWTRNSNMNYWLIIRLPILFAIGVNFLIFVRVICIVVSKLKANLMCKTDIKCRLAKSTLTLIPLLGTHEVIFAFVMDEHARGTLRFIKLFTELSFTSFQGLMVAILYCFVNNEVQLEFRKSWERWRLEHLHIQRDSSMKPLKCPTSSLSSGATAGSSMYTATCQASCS

[2] = biological target: T2, human glucagon receptor (GcgR) (Homo sapiens, UniProt P47871); conditions: HEK293 cells expressing human GcgR, geometric mean, read-out: hGcgR cAMP Rel EC50 nM (SEM, n)
T2 construct: expressed in transfected cells; host or cells: HEK293
T2 sequence (P47871 26-477): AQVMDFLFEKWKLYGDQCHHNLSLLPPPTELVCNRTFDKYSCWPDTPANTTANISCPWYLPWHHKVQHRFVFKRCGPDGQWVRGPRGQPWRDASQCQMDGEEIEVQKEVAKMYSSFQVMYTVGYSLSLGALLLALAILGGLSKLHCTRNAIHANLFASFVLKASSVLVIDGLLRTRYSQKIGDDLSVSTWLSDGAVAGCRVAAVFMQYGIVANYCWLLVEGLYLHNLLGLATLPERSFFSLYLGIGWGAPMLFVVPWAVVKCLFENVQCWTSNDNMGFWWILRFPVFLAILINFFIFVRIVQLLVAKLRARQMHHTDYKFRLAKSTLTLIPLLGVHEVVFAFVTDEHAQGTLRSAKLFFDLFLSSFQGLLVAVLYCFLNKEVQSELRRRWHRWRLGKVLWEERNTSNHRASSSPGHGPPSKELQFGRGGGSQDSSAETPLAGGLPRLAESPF

[3] = biological target: T3, human glucose-dependent insulinotropic peptide receptor (GIPR) (Homo sapiens, UniProt P48546); conditions: HEK293 cells expressing human GIPR, geometric mean, read-out: hGIPR cAMP Rel EC50 nM (SEM, n)
T3 construct: expressed in transfected cells; host or cells: HEK293
T3 sequence (P48546 22-466): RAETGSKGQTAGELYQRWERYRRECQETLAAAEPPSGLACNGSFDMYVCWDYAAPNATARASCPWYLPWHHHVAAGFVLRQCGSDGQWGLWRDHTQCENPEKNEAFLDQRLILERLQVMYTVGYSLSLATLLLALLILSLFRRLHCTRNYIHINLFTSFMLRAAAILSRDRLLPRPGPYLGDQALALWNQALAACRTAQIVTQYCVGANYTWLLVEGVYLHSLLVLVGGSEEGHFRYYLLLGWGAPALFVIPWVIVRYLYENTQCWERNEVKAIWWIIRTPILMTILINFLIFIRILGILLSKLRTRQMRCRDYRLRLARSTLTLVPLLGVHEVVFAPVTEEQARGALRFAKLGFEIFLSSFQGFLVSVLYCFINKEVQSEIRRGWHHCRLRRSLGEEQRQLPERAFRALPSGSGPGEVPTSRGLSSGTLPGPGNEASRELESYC

SMILES	EC50 [1]	EC50 [2]	EC50 [3]
CC[C@H](C)[C@H](NC(=O)[C@H](CO)NC(=O)[C@H](Cc1ccc(O)cc1)NC(=O)[C@H](CC(=O)O)NC(=O)[C@H](CO)NC(=O)[C@@H](NC(=O)[C@](C)(Cc1ccccc1)NC(=O)[C@@H](NC(=O)CNC(=O)[C@H](CCC(=O)O)NC(=O)C(C)(C)NC(=O)[C@@H](N)Cc1ccc(O)cc1)[C@@H](C)O)[C@@H](C)CC)C(=O)N[C@@H](C)C(=O)N[C@@H](CC(C)C)C(=O)N[C@@H](CC(=O)O)C(=O)N[C@@H](CCCCN)C(=O)N[C@@H](CCCCNC(=O)COCCOCCNC(=O)COCCOCCNC(=O)CC[C@H](NC(=O)CCCCCCCCCCCCCCCCC(=O)O)C(=O)O)C(=O)N[C@@H](Cc1c[nH]cn1)C(=O)N[C@@H](CCC(N)=O)C(=O)NC(C)(C)C(=O)N[C@@H](CC(=O)O)C(=O)N[C@@H](Cc1ccccc1)C(=O)N[C@H](C(=O)N[C@@H](CCC(=O)O)C(=O)N[C@@H](Cc1ccncc1)C(=O)N[C@@H](CC(C)C)C(=O)N[C@@H](CC(C)C)C(=O)N[C@@H](C)C(=O)NCC(=O)NCC(=O)N1CCC[C@H]1C(=O)N[C@@H](CO)C(=O)N[C@@H](CO)C(=O)NCC(=O)N[C@@H](C)C(=O)N1CCC[C@H]1C(=O)N1CCC[C@H]1C(=O)N1CCC[C@H]1C(=O)N[C@@H](CO)C(N)=O)C(C)C [Example 23] (H-Y[Aib]EGT[αMeF]ISDYSIALDKK([AEEA-AEEA-γGlu-C18 diacid])HQ[Aib]DFVE[4Pal]LLAGGPSSGAPPPS-NH2)	206 nM	> 5000 nM	0.0192 nM
CC[C@H](C)[C@H](NC(=O)[C@H](CO)NC(=O)[C@H](Cc1ccc(O)cc1)NC(=O)[C@H](CC(=O)O)NC(=O)[C@H](CO)NC(=O)[C@@H](NC(=O)[C@H](Cc1ccccc1)NC(=O)[C@@H](NC(=O)CNC(=O)[C@H](CCC(=O)O)NC(=O)[C@@H](C)NC(=O)[C@@H](N)Cc1ccc(O)cc1)[C@@H](C)O)[C@@H](C)CC)C(=O)N[C@@H](CC(C)C)C(=O)N[C@@H](CC(C)C)C(=O)N[C@@H](CC(=O)O)C(=O)N[C@@H](CCCCN)C(=O)N[C@@H](CCCCNC(=O)COCCOCCNC(=O)COCCOCCNC(=O)CC[C@H](NC(=O)CCCCCCCCCCCCCCCCC(=O)O)C(=O)O)C(=O)N[C@@H](C)C(=O)N[C@@H](CCC(N)=O)C(=O)NC(C)(C)C(=O)N[C@@H](CCC(=O)O)C(=O)N[C@@H](Cc1ccccc1)C(=O)N[C@H](C(=O)N[C@@H](CC(N)=O)C(=O)N[C@@H](Cc1c[nH]c2ccccc12)C(=O)N[C@@H](CC(C)C)C(=O)N[C@@H](CC(C)C)C(=O)N[C@@H](CCC(=O)O)C(=O)NCC(=O)NCC(=O)N1CCC[C@H]1C(=O)N[C@@H](CO)C(=O)N[C@@H](CO)C(=O)NCC(=O)N[C@@H](C)C(=O)N1CCC[C@H]1C(=O)N1CCC[C@H]1C(=O)N1CCC[C@H]1C(=O)N[C@@H](CO)C(N)=O)C(C)C [Example 28] (H-Y[dA]EGTFISDYSILLDKK([AEEA-AEEA-γGlu-C18 diacid])AQ[Aib]EFVNWLLEGGPSSGAPPPS-NH2)	> 5000 nM	> 5000 nM	0.0118 nM
CC[C@H](C)[C@H](NC(=O)[C@H](CO)NC(=O)[C@H](Cc1ccc(O)cc1)NC(=O)[C@H](CC(=O)O)NC(=O)[C@H](CO)NC(=O)[C@@H](NC(=O)[C@H](Cc1ccccc1)NC(=O)[C@@H](NC(=O)CNC(=O)[C@H](CCC(=O)O)NC(=O)C(C)(C)NC(=O)[C@@H](N)Cc1ccc(O)cc1)[C@@H](C)O)[C@@H](C)CC)C(=O)N[C@@H](C)C(=O)N[C@@H](CC(C)C)C(=O)N[C@@H](CC(=O)O)C(=O)N[C@@H](CCCCN)C(=O)N[C@H](C(=O)N[C@@H](Cc1c[nH]cn1)C(=O)N[C@@H](CCC(N)=O)C(=O)NC(C)(C)C(=O)N[C@@H](CCC(=O)O)C(=O)N[C@@H](Cc1ccccc1)C(=O)N[C@H](C(=O)N[C@@H](CC(N)=O)C(=O)N[C@@H](Cc1ccc(O)cc1)C(=O)N[C@@H](CCCCNC(=O)COCCOCCNC(=O)COCCOCCNC(=O)CC[C@H](NC(=O)CCCCCCCCCCCCCCCCCCC(=O)O)C(=O)O)C(=O)N[C@@H](CC(C)C)C(=O)N[C@@H](C)C(=O)NCC(=O)NCC(=O)N1CCC[C@H]1C(=O)N[C@@H](CO)C(=O)N[C@@H](CO)C(=O)NCC(=O)N[C@@H](C)C(=O)N1CCC[C@H]1C(=O)N1CCC[C@H]1C(=O)N1CCC[C@H]1C(=O)N[C@@H](CO)C(N)=O)C(C)C)[C@@H](C)CC [Example 96] (H-Y[Aib]EGTFISDYSIALDKIHQ[Aib]EFVNYK([AEEA-AEEA-γGlu-C20 diacid])LAGGPSSGAPPPS-NH2)	> 5000 nM	> 5000 nM	0.0251 nM
CC[C@H](C)[C@H](NC(=O)[C@H](CO)NC(=O)[C@H](Cc1ccc(O)cc1)NC(=O)[C@H](CC(=O)O)NC(=O)[C@H](CO)NC(=O)[C@@H](NC(=O)[C@H](Cc1ccccc1)NC(=O)[C@@H](NC(=O)CNC(=O)[C@H](CCC(=O)O)NC(=O)[C@@H](C)NC(=O)[C@@H](N)Cc1ccc(O)cc1)[C@@H](C)O)[C@@H](C)CC)C(=O)N[C@@H](CC(C)C)C(=O)N[C@@H](CC(C)C)C(=O)N[C@@H](CC(=O)O)C(=O)N[C@@H](CCCCN)C(=O)N[C@@H](CCCCNC(=O)COCCOCCNC(=O)COCCOCCNC(=O)CC[C@H](NC(=O)CCCCCCCCCCCCCCCCC(=O)O)C(=O)O)C(=O)N[C@@H](C)C(=O)N[C@@H](CCC(N)=O)C(=O)NC(C)(C)C(=O)N[C@@H](CC(=O)O)C(=O)N[C@@H](Cc1ccccc1)C(=O)N[C@H](C(=O)N[C@@H](CCC(=O)O)C(=O)N[C@@H](Cc1c[nH]c2ccccc12)C(=O)N[C@@H](CC(C)C)C(=O)N[C@@H](CC(C)C)C(=O)N[C@@H](C)C(=O)N[C@@H](CCC(N)=O)C(=O)NCC(=O)N1CCC[C@H]1C(=O)N[C@@H](CO)C(=O)N[C@@H](CO)C(=O)NCC(=O)N[C@@H](C)C(=O)N1CCC[C@H]1C(=O)N1CCC[C@H]1C(=O)N1CCC[C@H]1C(=O)N[C@@H](CO)C(N)=O)C(C)C [Example 16] (H-Y[dA]EGTFISDYSILLDKK([AEEA-AEEA-γGlu-C18 diacid])AQ[Aib]DFVEWLLAQGPSSGAPPPS-NH2)	> 5000 nM	> 5000 nM	0.00937 nM
CC[C@H](C)[C@H](NC(=O)[C@H](CO)NC(=O)[C@H](Cc1ccc(O)cc1)NC(=O)[C@H](CC(=O)O)NC(=O)[C@H](CO)NC(=O)[C@@H](NC(=O)[C@H](Cc1ccccc1)NC(=O)[C@@H](NC(=O)CNC(=O)[C@H](CCC(=O)O)NC(=O)[C@@H](C)NC(=O)[C@@H](N)Cc1ccc(O)cc1)[C@@H](C)O)[C@@H](C)CC)C(=O)N[C@@H](CC(C)C)C(=O)N[C@@H](CC(C)C)C(=O)N[C@@H](CC(=O)O)C(=O)N[C@@H](CCCCN)C(=O)N[C@@H](CCCCNC(=O)COCCOCCNC(=O)COCCOCCNC(=O)CC[C@H](NC(=O)CCCCCCCCCCCCCCCCC(=O)O)C(=O)O)C(=O)N[C@@H](C)C(=O)N[C@@H](CCC(N)=O)C(=O)NC(C)(C)C(=O)N[C@@H](CC(=O)O)C(=O)N[C@@H](Cc1ccccc1)C(=O)N[C@H](C(=O)N[C@@H](CC(N)=O)C(=O)N[C@@H](Cc1c[nH]c2ccccc12)C(=O)N[C@@H](CC(C)C)C(=O)N[C@@H](CC(C)C)C(=O)N[C@@H](C)C(=O)NCC(=O)NCC(=O)N1CCC[C@H]1C(=O)N[C@@H](CO)C(=O)N[C@@H](CO)C(=O)NCC(=O)N[C@@H](C)C(=O)N1CCC[C@H]1C(=O)N1CCC[C@H]1C(=O)N1CCC[C@H]1C(=O)N[C@@H](CO)C(N)=O)C(C)C [Example 19] (H-Y[dA]EGTFISDYSILLDKK([AEEA-AEEA-γGlu-C18 diacid])AQ[Aib]DFVNWLLAGGPSSGAPPPS-NH2)	> 5000 nM	> 5000 nM	0.00992 nM
